According to article PMC10507807, “De novo design of a stapled peptide targeting SARS-CoV-2 spike protein receptor-binding domain” (RSC Medicinal Chemistry, 2023):
Entries after “also recorded” stand apart in the source; their conditions may differ. Starred links: 1 amine or outer side, 2 acyl side, 3 side chain; linkers in the order of their positions; H or OH if unused. Positions of bridges follow the written chain, without caps; N, C: chain ends. Non-standard residues stand in square brackets, D forms with d. Residues, ends and D or L forms follow the SMILES beside them. X1 = C[C@@](CC=[*:3])(N[*:1])C(=O)[*:2]

Experiments:
[1] = target: recombinant SARS-CoV-2 spike B.1.617.2 (delta variant); format: binding
[2] = system: omicron (B.1.1.529) variant; format: binding, SARS-CoV-2
[3] = system: SARS-CoV-2 alpha variant (B.1.1.7); format: cell-based

| Compound | Kd ([1]; read-out: KD (dissociation constant)) [µM] | binding to omicron variant [2] | inhibition of SARS-CoV-2 virus replication [3] | decrease of viral replication compared to PBS control ([3]; 48 h) [%] | dissociation constant of ACE2 with delta variant compared with wild-type spike [1] |
| --- | --- | --- | --- | --- | --- |
| CSCC[C@@H]1NC(=O)[C@H](CC(N)=O)NC(=O)[C@@H]2CC(=O)NCCCC[C@H](NC(=O)[C@H](Cc3c[nH]c4ccccc34)NC(=O)[C@@H](NC(=O)[C@H](CCCCN)NC(=O)[C@H](Cc3ccc(O)cc3)NC(=O)[C@H](CC(C)C)NC(=O)[C@H](Cc3c[nH]c4ccccc34)NC(=O)[C@H](CCC(=O)O)NC(=O)[C@@H](NC(=O)CNC(C)=O)[C@@H](C)O)C(C)C)C(=O)N[C@@H](C)C(=O)N[C@@H](Cc3ccccc3)C(=O)N[C@@](C)(C/C=C/C[C@@](C)(C(=O)O)NC1=O)C(=O)N2 [pep39] (Ac-GTEWLYKVWKAF[X1]DNM[X1]-OH; lactam 10-14; staple (E) 13-17) | 4.1 ± 1.4 | not as promising as those observed with the original spike protein and the delta variant | strongly inhibits SARS-CoV-2 virus replication in Vero E6 cells; also recorded: SARS-CoV-2 viral replication was significantly inhibited | 82.3 | – |
| ACE2 | – | – | – | – | more favorable for binding than the wild-type spike protein |
